# Measured values reported in patent US20100267732A1, “Prognostic Molecular Markers for ET-743 Treatment” (PHARMA MAR, S.A., priority 2007, published 2010).
# Columns and labels:
# sarcoma [1] = assay: Clinical outcome of sarcoma patients treated with ET-743 (Example 1, 160 patients; by XPG mRNA, XPG protein, BRCA1 mRNA); assay type: in vivo, human; design: Tumor Control Rate (CR+PR+MR+SD 6 mo) / patients achieving progression free survival 6 months (PFS6) / survival at 12 months: concentration or dose not given beside the values
# Method: In this study, 160 paraffin embedded tumor samples from sarcoma patients before the treatment with any chemotherapy agent have been evaluated.
# (§1) The majority of patients were treated before with one or several chemotherapy agents and later they followed a treatment with ET-743. The dosage of intravenous infusion (IV) of ET-743 given to the different patients was within the range of 1.650-1.0 mg/m^2; the schedules were 24 hours or 3 hour IV infusion with a three week interval between cycles; and the number of cycles ranged from 1 up to 44 cycles in some patients.
# The clinical data from the patients was collected in the clinical data collection form and matched with the molecular data after completion of the mRNA and protein expression levels determination (Table 1).
# SAS v8.2 (statistical software) was used for all the statistical analysis. The statistical techniques for univariate, bivariate and multivariate variables were chosen, according with the nature of variables that will be analysed, i.e. when the dependent variable is a temporal variable with censor status the Cox regression would be applied, when correlation between variables will be computed the Pearson and/or Spearman measures would be used. P-values below 0.05 will be considered statistically significant in all tests, when appropriate 95% confidence intervals will be presented too.
# A total of 160 paraffin embedded tumor samples providing evaluable results for mRNA or protein expression were analysed. […] These samples came from sarcoma patients before being treated with a chemotherapy agent.
# sarcoma [2] = assay: Clinical outcome of sarcoma patients treated with ET-743 (Example 2, 168 patients; by XPG SNP Asp1104His genotype, XPG mRNA, XPG protein); assay type: in vivo, human; design: surviving patients at two years after treatment / Tumor Control Rate (CR+PR+MR+SD≧6 mo) / patients achieving progression free survival ≧6 months (PFS6) / survival at 12 months / rate of survival after 2 years: concentration or dose not given beside the values
# Method: In this study, 168 paraffin embedded tumor samples from sarcoma patients before the treatment with any chemotherapy agent have been evaluated.
# as §1
# The clinical data from the patients was collected in the clinical data collection form and matched with the molecular data (Table 5)
# A total of 168 paraffin embedded tumor samples providing evaluable results for at least one of the biomarkers (XPGmRNA, XPG protein, XPGAsp1104His or BRCA 1 mRNA) were analysed.
# [3] = high vs low XPG mRNA subpopulation
# [4] = high vs low XPG protein subpopulation
# [5] = intermediate subpopulation (high BRCA1 and high XPG, or low BRCA1 and low XPG)
# [6] = whole cohort, 51 patients still censored
# [7] = whole cohort, Kaplan-Meier (FIG. 8)
smiles,measurement,setting,value
"COc1cc2c(cc1O)CCN[C@]21CS[C@@H]2c3c(OC(C)=O)c(C)c4c(c3[C@H](COC1=O)N1[C@@H]2[C@H]2c3c(cc(C)c(OC)c3O)C[C@@H]([C@@H]1O)N2C)OCO4 [ET-743, ecteinascidin 743]",Minor Responses (MR),sarcoma [1]; 140 evaluable patients,7.1%
same,Tumor Control Rate (CR+PR+MR+SD 6 mo),sarcoma [1]; 140 evaluable patients,47.1%
same,"overall response rate (RR), Complete+Partial Responses",sarcoma [1]; 140 evaluable patients,16.4%
same,patients achieving progression free survival 6 months (PFS6),sarcoma [1]; 140 evaluable patients,41.4%
same,CR + PR + MR + SD > 6,"sarcoma [1]; High BRCA1, High XPG",11/26 (42%)
same,Median PFS,"sarcoma [1]; High BRCA1, High XPG",2.5 m
same,Median Survival,"sarcoma [1]; High BRCA1, High XPG",13.6 m
same,PFS 6,"sarcoma [1]; High BRCA1, High XPG",38.5%
same,PFS > 6 Months rate,"sarcoma [1]; High BRCA1, High XPG",9/26 (35%)
same,CR + PR + MR + SD > 6,"sarcoma [1]; High BRCA1, Low XPG",4/20 (20%)
same,Median PFS,"sarcoma [1]; High BRCA1, Low XPG",2.5 m
same,Median Survival,"sarcoma [1]; High BRCA1, Low XPG",6.6 m
same,PFS 6,"sarcoma [1]; High BRCA1, Low XPG",22.2%
same,PFS > 6 Months rate,"sarcoma [1]; High BRCA1, Low XPG",4/21 (19%)
same,CR + PR,"sarcoma [1]; High BRCA1 mRNA, High XPG mRNA",5/26 (19%)
same,CR + PR,"sarcoma [1]; High BRCA1 mRNA, Low XPG mRNA",0/20 (0%)
same,CR + PR + MR + SD > 6,"sarcoma [1]; Low BRCA1, High XPG",12/19 (63%)
same,Median PFS,"sarcoma [1]; Low BRCA1, High XPG",7.3 m
same,Median Survival,"sarcoma [1]; Low BRCA1, High XPG",15.4 m
same,PFS 6,"sarcoma [1]; Low BRCA1, High XPG",55.7%
same,PFS > 6 Months rate,"sarcoma [1]; Low BRCA1, High XPG",10/21 (48%)
same,CR + PR + MR + SD > 6,"sarcoma [1]; Low BRCA1, Low XPG",14/31 (45%)
same,Median PFS,"sarcoma [1]; Low BRCA1, Low XPG",3.4 m
same,Median Survival,"sarcoma [1]; Low BRCA1, Low XPG",11.7 m
same,PFS 6,"sarcoma [1]; Low BRCA1, Low XPG",35.5%
same,PFS > 6 Months rate,"sarcoma [1]; Low BRCA1, Low XPG",12/27 (61%)
same,CR + PR,"sarcoma [1]; Low BRCA1 mRNA, High XPG mRNA",3/19 (16%)
same,CR + PR,"sarcoma [1]; Low BRCA1 mRNA, Low XPG mRNA",6/31 (19%)
same,CR + PR,sarcoma [1]; XPG mRNA < 1.55,6/59 (10%)
same,CR + PR + MR + SD ≧ 6,sarcoma [1]; XPG mRNA < 1.55,21/59 (36%)
same,Median PFS (KM),sarcoma [1]; XPG mRNA < 1.55,2.5 m
same,Median Survival (KM),sarcoma [1]; XPG mRNA < 1.55,9.3 m
same,PFS6 (KM),sarcoma [1]; XPG mRNA < 1.55,29.5%
same,PFS ≧ 6 Months rate,sarcoma [1]; XPG mRNA < 1.55,18/60 (30%)
same,CR + PR,sarcoma [1]; XPG mRNA ≧ 1.55,11/57 (19%)
same,CR + PR + MR + SD ≧ 6,sarcoma [1]; XPG mRNA ≧ 1.55,32/57 (56%)
same,Median PFS (KM),sarcoma [1]; XPG mRNA ≧ 1.55,7.1 m
same,Median Survival (KM),sarcoma [1]; XPG mRNA ≧ 1.55,19.1 m
same,PFS6 (KM),sarcoma [1]; XPG mRNA ≧ 1.55,52.1%
same,PFS ≧ 6 Months rate,sarcoma [1]; XPG mRNA ≧ 1.55,28/59 (47.5%)
same,CR + PR + MR + SD ≧ 6,sarcoma [1]; XPG protein 0 + 1,27/64 (42%)
same,Median PFS (KM),sarcoma [1]; XPG protein 0 + 1,3.7 m
same,Median Survival (KM),sarcoma [1]; XPG protein 0 + 1,11.7 m
same,PFS6 (KM),sarcoma [1]; XPG protein 0 + 1,39.9%
same,PFS ≧ 6 Months,sarcoma [1]; XPG protein 0 + 1,26/64 (39%)
same,CR + PR + MR + SD ≧ 6,sarcoma [1]; XPG protein 2 + 3,15/25 (60%)
same,Median PFS (KM),sarcoma [1]; XPG protein 2 + 3,7.1 m
same,Median Survival (KM),sarcoma [1]; XPG protein 2 + 3,27.7 m
same,PFS6 (KM),sarcoma [1]; XPG protein 2 + 3,55.6%
same,PFS ≧ 6 Months,sarcoma [1]; XPG protein 2 + 3,13/25 (50%)
same,CR + PR,sarcoma [1]; XPG protein IHC score 0 + 1,8/64 (13%)
same,CR + PR,sarcoma [1]; XPG protein IHC score 2 + 3,6/25 (24%)
same,survival at 12 months,"sarcoma [1]; high XPG expression (protein analysis, FIG. 5)",73.7%
same,survival at 12 months,sarcoma [1]; high XPG mRNA expression,61.9%
same,fold increase in objective response,sarcoma [1]; [3],1.9 fold
same,fold increase in tumor control rate,sarcoma [1]; [3],1.6 fold
same,fold increase in objective response,sarcoma [1]; [4],1.85 fold
same,fold increase in tumor control rate,sarcoma [1]; [4],1.43 fold
same,Median OS,sarcoma [1]; [5],13.6 months
same,Median PFS,sarcoma [1]; [5],2.8 months
same,PFS6 rate,sarcoma [1]; [5],36.6%
same,survival at 12 months,sarcoma [1]; low XPG mRNA expression,46.2%
same,survival at 12 months,sarcoma [1]; low XPG protein expression,45.5%
same,median duration of the response (CR+PR+MR),sarcoma [1]; whole cohort,7.83 months
same,Median Survival,sarcoma [1]; [6],10 months
same,Median Survival,"sarcoma [1]; whole cohort, Kaplan-Meier",17.7 months
same,PFS6 rate,"sarcoma [1]; whole cohort, Kaplan-Meier",42.1%
same,median progression free survival,"sarcoma [1]; whole cohort, Kaplan-Meier",3.8 months
same,Minor Responses (MR),sarcoma [2]; 147 evaluable patients,6.8%
same,Tumor Control Rate (CR+PR+MR+SD≧6 mo),sarcoma [2]; 147 evaluable patients,44.9%
same,"overall response rate (RR), Complete+Partial Responses",sarcoma [2]; 147 evaluable patients,15.6%
same,patients achieving progression free survival ≧6 months (PFS6),sarcoma [2]; 147 evaluable patients,39.5%
same,Median PFS,"sarcoma [2]; Asp/Asp XPG (W), XPG mRNA < 1.55",1.8 months
same,Median PFS,"sarcoma [2]; Asp/Asp XPG (W), XPG protein 0 + 1",2.9 months
same,Median PFS,"sarcoma [2]; Asp/His + His/His XPG (H + M), XPG mRNA < 1.55",3.3 months
same,Median PFS,"sarcoma [2]; Asp/His + His/His XPG (H + M), XPG protein 0 + 1",3.3 months
same,Median OS,"sarcoma [2]; H + M, XPG mRNA < 1.55",9.0 months
same,OS at 12 months,"sarcoma [2]; H + M, XPG mRNA < 1.55",39.1%
same,PFS at 6 months,"sarcoma [2]; H + M, XPG mRNA < 1.55",31.3%
same,Median OS,"sarcoma [2]; H + M, XPG mRNA >= 1.55",5.0 months
same,Median PFS,"sarcoma [2]; H + M, XPG mRNA >= 1.55",2.9 months
same,OS at 12 months,"sarcoma [2]; H + M, XPG mRNA >= 1.55",36.9%
same,PFS at 6 months,"sarcoma [2]; H + M, XPG mRNA >= 1.55",15.4%
same,Median OS,"sarcoma [2]; H + M, XPG protein 0 + 1",6.2 months
same,OS at 12 months,"sarcoma [2]; H + M, XPG protein 0 + 1",23.7%
same,OS at 24 months,"sarcoma [2]; H + M, XPG protein 0 + 1",0%
same,PFS at 6 months,"sarcoma [2]; H + M, XPG protein 0 + 1",26.3%
same,Median OS,"sarcoma [2]; H + M, XPG protein 2 + 3",12.2 months
same,Median PFS,"sarcoma [2]; H + M, XPG protein 2 + 3",3.4 months
same,OS at 12 months,"sarcoma [2]; H + M, XPG protein 2 + 3",52.6%
same,OS at 24 months,"sarcoma [2]; H + M, XPG protein 2 + 3",0%
same,PFS at 6 months,"sarcoma [2]; H + M, XPG protein 2 + 3",27.3%
same,rate of survival after 2 years,sarcoma [2]; M+H genotype and high XPG mRNA expression,0%
same,rate of survival after 2 years,sarcoma [2]; M+H genotype and low XPG mRNA expression,39.1%
same,rate of survival after 2 years,sarcoma [2]; W genotype and high XPG mRNA expression,66.9%
same,rate of survival after 2 years,sarcoma [2]; W genotype and low XPG mRNA expression,28.9%
same,Median OS,"sarcoma [2]; W, XPG mRNA < 1.55",8.6 months
same,OS at 12 months,"sarcoma [2]; W, XPG mRNA < 1.55",28.9%
same,PFS at 6 months,"sarcoma [2]; W, XPG mRNA < 1.55",26.3%
same,Median OS,"sarcoma [2]; W, XPG mRNA >= 1.55",27.7 months
same,Median PFS,"sarcoma [2]; W, XPG mRNA >= 1.55",17.1 months
same,OS at 12 months,"sarcoma [2]; W, XPG mRNA >= 1.55",83.7%
same,PFS at 6 months,"sarcoma [2]; W, XPG mRNA >= 1.55",82.4%
same,Median OS,"sarcoma [2]; W, XPG protein 0 + 1",11.7 months
same,OS at 12 months,"sarcoma [2]; W, XPG protein 0 + 1",47.1%
same,OS at 24 months,"sarcoma [2]; W, XPG protein 0 + 1",40.4%
same,PFS at 6 months,"sarcoma [2]; W, XPG protein 0 + 1",44.0%
same,Median OS,"sarcoma [2]; W, XPG protein 2 + 3",27.7 months
same,Median PFS,"sarcoma [2]; W, XPG protein 2 + 3",8.0 months
same,OS at 12 months,"sarcoma [2]; W, XPG protein 2 + 3",90.0%
same,OS at 24 months,"sarcoma [2]; W, XPG protein 2 + 3",90.0%
same,PFS at 6 months,"sarcoma [2]; W, XPG protein 2 + 3",77.1%
same,Median PFS (KM),sarcoma [2]; genotype H,3.4 months
same,Median Survival (KM),sarcoma [2]; genotype H,6.9 months
same,PFS6 (KM),sarcoma [2]; genotype H,34.6%
same,survival at 12 months,sarcoma [2]; genotype H,34.6%
same,CR + PR + MR + SD ≧ 6,sarcoma [2]; genotype M,0
same,Median PFS (KM),sarcoma [2]; genotype M,1.6 months
same,Median Survival (KM),sarcoma [2]; genotype M,9.1 months
same,PFS6 (KM),sarcoma [2]; genotype M,0%
same,survival at 12 months,sarcoma [2]; genotype M,31.3%
same,Median PFS (KM),sarcoma [2]; genotype W,6.4 months
same,Median Survival (KM),sarcoma [2]; genotype W,19.9 months
same,PFS6 (KM),sarcoma [2]; genotype W,50.8%
same,survival at 12 months,sarcoma [2]; genotype W,54%
same,median duration of the response (CR+PR+MR),sarcoma [2]; whole cohort,7.83 months
same,Median Survival,sarcoma [2]; [6],9.6 months
same,surviving patients at two years after treatment,"sarcoma [2]; whole cohort, Kaplan-Meier",34.0%
same,Median Survival,sarcoma [2]; [7],15.4 months
same,PFS6 rate,sarcoma [2]; [7],40.2%
same,median progression free survival,sarcoma [2]; [7],3.4 months
